Data taken from patent US10689344B2, “Biphenylamide derivative Hsp90 inhibitors” (University of Kansas, priority 2013, dated 2020).
Each block holds one compound with its values, some of them ahead of it.

What was measured:
[1] = system: MCF-7 (estrogen receptor positive breast cancer cells); assay: Anti-proliferation assay (MTS/PMS, 72 h), MCF-7; format: cell-based; details: Homo sapiens
How it was run: (§1)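 Cells seeded at 2000/well, attached overnight, then exposed to compound at varying concentrations (1% DMSO final) for 72 h at 37° C, 5% CO2. Viability by MTS/PMS, normalised to 1% DMSO controls as 100% proliferation; IC50 from separate triplicate experiments.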

[2] = system: SKBr3 (estrogen receptor negative, HER2 over-expressing breast cancer cells); assay: Anti-proliferation assay (MTS/PMS, 72 h), SKBr3; format: cell-based; details: Homo sapiens
How it was run: as §1

[3] = MCF7, Table 3, substituted para-para biphenyl core
[4] = SK-BR-3, Table 3, substituted para-para biphenyl core
[5] = MCF7, Table 8, para-para biphenyl core with substituted biphenylamide group
[6] = SK-BR-3, Table 8, para-para biphenyl core with substituted biphenylamide group
[7] = MCF7, Table 6, para-para biphenyl core with substituted benzylamide
[8] = SK-BR-3, Table 6, para-para biphenyl core with substituted benzylamide

IC50 [1, 3]: 3.7 ± 0.61 µM | IC50 [2, 4]: 2.77 ± 1.16 µM
Compound: COc1cccc(-c2cc(C(=O)Nc3ccc(-c4ccc(OC5CCN(C)CC5)c(C#N)c4)cc3)ccc2OC)c1 [Compound 29m, N-(3′-cyano-4′-((1-methylpiperidin-4-yl)oxy)-[1,1′-biphenyl]-4-yl)-3′,6-dimethoxy-[1,1′-biphenyl]-3-carboxamide]

IC50 [1, 5]: 1.43 ± 0.28 µM | IC50 [2, 6]: 3.37 ± 0.74 µM
Compound: COc1ccc(C(=O)Nc2ccc(-c3ccc(OC4CCN(C)CC4)cc3)cc2)cc1-c1cccc(NC(C)=O)c1 [Compound 50d, 3′-acetamido-6-methoxy-N-(4′-((1-methylpiperidin-4-yl)oxy)-[1,1′-biphenyl]-4-yl)-[1,1′-biphenyl]-3-carboxamide]

IC50 [1, 7]: 1.68 ± 0.13 µM | IC50 [2, 8]: 0.81 ± 0.28 µM
Compound: CN1CCC(Oc2ccc(-c3ccc(NC(=O)c4cc(Cl)cc(Cl)c4)cc3)cc2)CC1 [Compound 41o, 3,5-dichloro-N-(4′-((1-methylpiperidin-4-yl)oxy)-[1,1′-biphenyl]-4-yl)benzamide]

IC50 ([1]; MCF7, Table 5, modified linkers in para-para biphenyl core): 1.26 ± 0.13 µM | IC50 ([2]; SK-BR-3, Table 5, modified linkers in para-para biphenyl core): 0.91 ± 0.08 µM
Compound: COc1cccc(-c2cc(NC(=O)Nc3ccc(-c4ccc(OC5CCN(C)CC5)cc4)cc3)ccc2OC)c1 [Compound 52, 1-(3′,6-dimethoxy-[1,1′-biphenyl]-3-yl)-3-(4′-((1-methylpiperidin-4-yl)oxy)-[1,1′-biphenyl]-4-yl)urea]

IC50 [1, 3]: 1.84 ± 0.43 µM | IC50 [2, 4]: 2.66 ± 0.76 µM
Compound: COc1cccc(-c2cc(C(=O)Nc3ccc(-c4ccc(OC5CCN(C)CC5)c(NC(C)=O)c4)cc3)ccc2OC)c1 [Compound 39a, N-(3′-acetamido-4′-((1-methylpiperidin-4-yl)oxy)-[1,1′-biphenyl]-4-yl)-3′,6-dimethoxy-[1,1′-biphenyl]-3-carboxamide]

IC50 [1, 7]: 2.83 ± 0.69 µM | IC50 [2, 8]: 1.94 ± 0.37 µM
Compound: CN1CCC(Oc2ccc(-c3ccc(NC(=O)c4cccc(Cl)c4)cc3)cc2)CC1 [Compound 41h, 3-chloro-N-(4′-((1-methylpiperidin-4-yl)oxy)-[1,1′-biphenyl]-4-yl)benzamide]

IC50 ([1]; MCF7, Table 4, para-para heteroatom substituted biphenyl core): 1.02 ± 0.01 µM | IC50 ([2]; SK-BR-3, Table 4, para-para heteroatom substituted biphenyl core): 1.07 ± 0.01 µM
Compound: COc1cccc(-c2cc(C(=O)Nc3ccc(-c4ccc(OC5CCN(C)CC5)cc4)cn3)ccc2OC)c1 [Compound 19d, 3′,6-dimethoxy-N-(5-(4-((1-methylpiperidin-4-yl)oxy)phenyl)pyridin-2-yl)-[1,1′-biphenyl]-3-carboxamide]

IC50 [1, 5]: 1.67 ± 0.68 µM | IC50 [2, 6]: 1.52 ± 0.55 µM
Compound: COc1ccc(C(=O)Nc2ccc(-c3ccc(OC4CCN(C)CC4)cc3)cc2)cc1-c1cccc(N)c1 [Compound 50c, 3′-amino-6-methoxy-N-(4′-((1-methylpiperidin-4-yl)oxy)-[1,1′-biphenyl]-4-yl)-[1,1′-biphenyl]-3-carboxamide]

IC50 [1, 7]: 2.01 ± 0.58 µM | IC50 [2, 8]: 1.32 ± 0.23 µM
Compound: CN1CCC(Oc2ccc(-c3ccc(NC(=O)c4cc5ccccc5s4)cc3)cc2)CC1 [Compound 47b, N-(4′-((1-methylpiperidin-4-yl)oxy)-[1,1′-biphenyl]-4-yl)benzo[b]thiophene-2-carboxamide]

IC50 [1, 7]: 5.31 ± 0.7 µM | IC50 [2, 8]: 2.87 ± 0.51 µM
Compound: COc1cccc(C(=O)Nc2ccc(-c3ccc(OC4CCN(C)CC4)cc3)cc2)c1 [Compound 41i, 3-methoxy-N-(4′-((1-methylpiperidin-4-yl)oxy)-[1,1′-biphenyl]-4-yl)benzamide]

IC50 ([1]; MCF7, Table 2, para-meta biphenyl core with substituted benzylamide): 3.93 ± 0.47 µM | IC50 ([2]; SK-BR-3, Table 2, para-meta biphenyl core with substituted benzylamide): 5.91 ± 0.15 µM
Compound: CN1CCC(Oc2ccc(-c3cccc(NC(=O)c4ccc(Cl)cc4Cl)c3)cc2)CC1 [Compound 6n, 2,4-Dichloro-N-(4′-((1-methylpiperidin-4-yl)oxy)-[1,1′-biphenyl]-3-yl)benzamide]

IC50 ([1]; MCF7, Table 1, ortho, meta and para biphenyl cores): 4.89 ± 0.08 µM | IC50 ([2]; SK-BR-3, Table 1, ortho, meta and para biphenyl cores): 4.15 ± 0.96 µM
Compound: CN1CCC(Oc2cccc(-c3cccc(NC(=O)c4ccc(Cl)cc4)c3)c2)CC1 [Compound 61g, 4-chloro-N-(3′-((1-methylpiperidin-4-yl)oxy)-[1,1′-biphenyl]-3-yl)benzamide]

IC50 [1, 3]: 5.95 ± 1.22 µM | IC50 [2, 4]: 2.23 ± 0.49 µM
Compound: COc1cccc(-c2cc(C(=O)Nc3ccc(-c4ccc(OC5CCN(C)CC5)c(N)c4)cc3)ccc2OC)c1 [Compound 38a, N-(3′-amino-4′-((1-methylpiperidin-4-yl)oxy)-[1,1′-biphenyl]-4-yl)-3′,6-dimethoxy-[1,1′-biphenyl]-3-carboxamide]
